The target in data set [1] is T1, TspO (tryptophan-rich sensory protein) (Cereibacter sphaeroides, UniProt Q9RFC8).
T1 construct: C-terminal His6 tag, expressed in E. coli BL21(DE3), purified in DDM
T1 sequence (Q9RFC8 1-158): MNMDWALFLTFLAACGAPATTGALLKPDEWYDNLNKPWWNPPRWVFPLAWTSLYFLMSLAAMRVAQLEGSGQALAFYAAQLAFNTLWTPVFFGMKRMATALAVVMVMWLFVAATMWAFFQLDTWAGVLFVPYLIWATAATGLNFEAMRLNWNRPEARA
Nature of the data set: intrinsic tryptophan fluorescence quenching titration, purified protein in DDM. The format is binding.

The data set “native gel or EMSA” concerns the molecule itself. Nature of the data set: native gel or EMSA. On the technique in general: Mobility shift assays separate free from complexed probe on a gel.

The values below come from publication PMC2911597, “Three-Dimensional Structure of TspO by Electron Cryomicroscopy of Helical Crystals” (Structure(London, England:1993), 2010).

Read-outs that look alike come from different tables or passages of the source.

As usually defined, the Kd is the constant that tells how readily two partners part at equilibrium. For orientation: stoichiometry N means a count of units in the complex or per binding partner.

For `C=CC1=C(C)c2cc3[nH]c(cc4nc(cc5[nH]c(cc1n2)c(C)c5CCC(=O)O)C(CCC(=O)O)=C4C)c(C)c3C=C` [PPIX, protoporphyrin IX], binding in data set [1] was characterised by a dissociation constant (Kd) of 8.6 ± 0.6 µM. Consider `CC1=C(CCC(=O)O)c2cc3[nH]c(cc4nc(cc5[nH]c(cc1n2)c(CCC(=O)O)c5C)C(C)=C4CCC(=O)O)c(CCC(=O)O)c3C` [cPPIII, coproporphyrin III], for which the Kd in data set [1] (read-out: Kd) amounted to 17.9 ± 1.7 µM. Turning to `C=CC1=C(C)C2=Cc3c(C=C)c(C)c4[n]3[Fe]([Cl])[n]3c(c(C)c(CCC(=O)O)c3=CC3=NC(=C4)C(C)=C3CCC(=O)O)=CC1=N2` [hemin], in data set [1], the Kd came out at 10 ± 2.5 µM.

B1: tryptophan-rich sensory protein (TspO) from Rhodobacter sphaeroides (natural protein, UniProt Q9RFC8 1-158, looked up)
chain: MNMDWALFLTFLAACGAPATTGALLKPDEWYDNLNKPWWNPPRWVFPLAWTSLYFLMSLAAMRVAQLEGSGQALAFYAAQLAFNTLWTPVFFGMKRMATALAVVMVMWLFVAATMWAFFQLDTWAGVLFVPYLIWATAATGLNFEAMRLNWNRPEARA
notes: also called rsTspO; TspO-His6; source: E. coli BL21(DE3), pET29, purified in DDM (NiNTA-agarose, gel filtration)
Take B1: the “stoichiometry N” value in the data set “native gel or EMSA” was found to be 2.
